{"source": "patent US20240108740A1", "about": "“THERAPEUTIC COMPOSITIONS INCLUDING SPN10 AND USES THEREOF” (Stealth BioTherapeutics Inc., priority 2022, published 2024)", "key": {"[1]": {"system": "neonatal cardiomyocytes", "experiment": "Example 57: Ang II-induced mitochondrial ROS (Mitosox, flow cytometry)", "type": "cell-based, mouse", "conditions": "Angiotensin II 1 μM, 3 hours", "procedure": "Ventricles from mouse neonates younger than 72 hours will be dissected, minced, and enzymatically digested with Blendzyme 4 (45 mg/mL, Roche). After enzymatic digestion, cardiomyocytes will be enriched using differential pre-plating for 2 hours, and seeded on fibronectin-coated culture dishes for 24 hours in DMEM (Gibco) with 20% Fetal Bovine Serum (Sigma) and 25 μM Arabinosylcytosine (Sigma). Cardiomyocytes will be stimulated with Angiotensin II (1 μM) for 3 hours in serum-free DMEM containing 0.5% insulin transferrin-selenium (Sigma), 2 mM glutamine, and 1 mg/mL BSA. […] Samples will be analyzed using excitation/emission of 488/625 nm by flow cytometry. Flow data will be analyzed using FCS Express (De Novo Software, Los Angeles, CA, U.S.A.), and presented as histogram distributions of Mitosox fluorescence intensity."}, "[2]": {"system": "Isolated guinea pig hearts", "experiment": "Example 28: lipid peroxidation in hearts subjected to ischemia and reperfusion", "conditions": "brief intervals of ischemia and reperfusion; compared to untreated controls", "excerpt": "Isolated guinea pig hearts will be perfused in a retrograde manner in a Langendorff apparatus and subjected to various intervals of ischemia-reperfusion. Hearts will be fixed immediately, embedded in paraffin, and sectioned. Immunohistochemical analysis of 4-hydroxy-2-nonenol (HNE)-modified proteins will be carried out using an anti-HNE antibody."}, "[3]": {"system": "Ang II-induced hypertensive cardiomyopathy", "experiment": "Ang II (4 weeks) induced cardiac NADPH oxidase, p38 MAPK and apoptosis", "type": "in vivo", "excerpt": "It is anticipated that SPN10(s) (with or without aromatic-cationic peptides) or peptide conjugates act downstream of NADPH oxidase and will reduce activation of p38 MAPK and apoptosis in response to Ang II. […] Mitochondrial ROS, either directly, or indirectly by activating apoptosis signal regulating kinase, may induce apoptosis. It is anticipated that Ang II will induce cardiac apoptosis, which will be shown through an increase in cleaved caspase-3."}, "[4]": {"system": "anatomic zone of no-reflow", "experiment": "No re-flow phenomenon after PCI in humans", "type": "in vivo, human", "conditions": "at the time of reperfusion", "procedure": "Study group. Men and women, 18 years of age or older, who present within 6 hours after the onset of chest pain, who have ST-segment elevation of more than 0.1 mV in two contiguous leads, and for whom the clinical decision is made to treat with PCI will be eligible for enrollment. Patients will be eligible for the study whether they are undergoing primary PCI or rescue PCI. Occlusion of the affected coronary artery (Thrombolysis in Myocardial Infarction [TIMI] flow grade 0) at the time of admission will also be a criterion for inclusion. Angiography and Revascularization. Left ventricular and coronary angiography will be performed with the use of standard techniques, just before revascularization. […] No re-flow will be assessed by one or more imaging techniques. Re-flow phenomenon will be assessed using myocardial contrast echocardiography, coronary angiography, myocardial blush, coronary doppler imaging, electrocardiography, nuclear imaging single-photon emission CT, using thallium or technetium-99 m, or PET. […] Post-contrast delayed enhancement will be used on day 4±1, day 30±3 and 6+1.5 months after successful PCI and stenting to quantify infracted myocardium. This will be defined quantitatively by an intensity of the myocardial post-contrast signal that is more than 2 SD above that in a reference region of remote, non-infarcted myocardium within the same slice. […]"}, "[5]": {"system": "Caco-2 cells", "experiment": "Example 12: 3NP-induced mitochondrial depolarization (TMRM, CLSM)", "type": "cell-based, human", "conditions": "3NP 10 mM, 4 hours", "procedure": "Caco-2 cells will be treated with 3NP (10 mM) alone or in the presence of peptide conjugates (0.1 μM); aromatic-cationic peptides (an equivalent molar dose of aromatic-cationic peptide based on the concentration of the aromatic-cationic peptide administered in the peptide conjugate treatment group); SPN10(s) (an equivalent molar dose of SPN10 based on the concentration of SPN10 administered in the peptide conjugate treatment group); or SPN10(s) in combination with aromatic-cationic peptides (e.g., an equivalent molar dose of SPN10 based on the concentration of SPN10 administered in the peptide conjugate treatment group and an equivalent molar dose of aromatic-cationic peptide based on the concentration of aromatic-cationic peptide administered in the peptide conjugate treatment group) for 4 hours, and then incubated with TMRM and examined by CLSM. It is expected that 3NP-treated cells will display reduced fluorescence compared to control cells, which indicates mitochondrial depolarization."}}, "note": "Residues, ends and D or L forms follow the SMILES beside them."}
{"smiles": "N=C(N)NCCC[C@H](NC(=O)[C@@H](N)Cc1c[nH]c2ccccc12)C(=O)N[C@@H](Cc1c[nH]c2ccccc12)C(=O)N[C@@H](CCCCN)C(N)=O", "note": "[SPN10, H-L-Trp-L-Arg-L-Trp-L-Lys-NH2] (H-WRWK-NH2)", "values": [{"measurement": "Ang II-induced Mitosox fluorescence (mitochondrial ROS)", "setting": "[1]", "value": "reduce Ang II-induced fluorescence to the level similar to that of saline-treated control cardiomyocytes"}, {"measurement": "lipid peroxidation (HNE-modified proteins)", "setting": "[2]", "value": "prevent lipid peroxidation"}, {"measurement": "Ang II-increased cardiac NADPH oxidase activity", "setting": "[3]; 4 weeks of Ang II", "value": "not be changed"}, {"measurement": "activation of caspase-3 caused by Ang II (cleaved caspase-3)", "setting": "[3]; Ang II", "value": "completely prevent"}, {"measurement": "phosphorylation of p38 MAPK", "setting": "[3]; Ang II for 4 weeks", "value": "significantly and nearly fully attenuated"}, {"measurement": "anatomic zone of no-reflow versus placebo", "setting": "[4]", "value": "smaller"}, {"measurement": "mitochondrial depolarization caused by 3NP", "setting": "[5]", "value": "protect against mitochondrial depolarization"}]}
